Legend:
[1] = tested on: parental CHO cell line without any transfected receptors; test: Forskolin‐stimulated cAMP accumulation, parent CHO cells without transfected receptors; format: cell-based, Chinese hamster; settings: CHO cells without transfected receptors; in presence of forskolin
human α1A‐adrenoceptor [2] = target: T1, human α1A‐adrenoceptor (Homo sapiens, UniProt P35348); test: ^3H‐cAMP accumulation, CHO‐α1A cells; format: cell-based; settings: CHO‐α1A cells; for EC50: 5 h, read-out: cAMP accumulation Log EC50 (converted); for cAMP accumulation % forskolin: % of 10 µM forskolin response
T1 construct: expressed in transfected cells; host or cells: CHO-K1
T1 sequence (P35348 1-466): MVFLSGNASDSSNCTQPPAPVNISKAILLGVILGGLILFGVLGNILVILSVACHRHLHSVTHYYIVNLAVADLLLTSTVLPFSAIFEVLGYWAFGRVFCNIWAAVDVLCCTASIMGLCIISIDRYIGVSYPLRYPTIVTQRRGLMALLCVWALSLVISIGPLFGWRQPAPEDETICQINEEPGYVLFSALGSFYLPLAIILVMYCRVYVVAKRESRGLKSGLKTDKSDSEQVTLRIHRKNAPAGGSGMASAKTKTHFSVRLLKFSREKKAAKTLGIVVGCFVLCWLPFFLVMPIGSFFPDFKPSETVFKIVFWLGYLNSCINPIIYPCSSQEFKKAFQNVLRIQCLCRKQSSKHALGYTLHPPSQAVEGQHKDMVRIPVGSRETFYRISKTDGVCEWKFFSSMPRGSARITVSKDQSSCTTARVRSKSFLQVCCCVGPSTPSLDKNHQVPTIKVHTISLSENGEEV

human α1B‐adrenoceptor [3] = target: T2, human α1B‐adrenoceptor (Homo sapiens, UniProt P35368); test: ^3H‐prazosin whole‐cell radioligand binding, CHO‐α1B cells
T2 construct: expressed in transfected cells; host or cells: CHO-K1
T2 sequence (P35368 1-520): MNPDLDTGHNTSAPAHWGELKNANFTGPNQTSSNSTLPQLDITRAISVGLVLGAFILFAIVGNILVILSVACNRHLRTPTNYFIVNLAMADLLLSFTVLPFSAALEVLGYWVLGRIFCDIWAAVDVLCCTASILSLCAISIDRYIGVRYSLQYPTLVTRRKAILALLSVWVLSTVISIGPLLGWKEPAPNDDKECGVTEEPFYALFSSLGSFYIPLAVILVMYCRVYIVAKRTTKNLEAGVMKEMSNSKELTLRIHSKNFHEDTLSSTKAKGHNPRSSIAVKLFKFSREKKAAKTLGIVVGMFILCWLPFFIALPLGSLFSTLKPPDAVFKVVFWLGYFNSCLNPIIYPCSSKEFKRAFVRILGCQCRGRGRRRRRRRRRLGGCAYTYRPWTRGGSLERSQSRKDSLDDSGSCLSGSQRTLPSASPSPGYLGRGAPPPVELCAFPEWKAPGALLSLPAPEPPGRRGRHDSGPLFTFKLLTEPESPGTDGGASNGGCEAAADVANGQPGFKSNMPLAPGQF

human α1A‐adrenoceptor [4] = target: T1, human α1A‐adrenoceptor; test: ^3H‐prazosin whole‐cell radioligand binding, CHO‐α1A cells; settings: for Kd: Log KD α1A, ^3H‐prazosin whole cell binding, CHO‐α1A cells, given as log KD (negative), mean ± SEM; for Affinity selectivity ratio α1A vs α1B: higher affinity for α1A than α1B; for Affinity selectivity ratio α1A vs α1D: higher affinity for α1A than α1D
human α1B‐adrenoceptor [5] = target: T2, human α1B‐adrenoceptor; test: ^3H‐cAMP accumulation, CHO‐α1B cells; format: cell-based; settings: CHO‐α1B cells; for cAMP accumulation % forskolin: % forskolin maximum response; for EC50: read-out: cAMP accumulation Log EC50 (converted)
human α1A‐adrenoceptor [6] = target: T1, human α1A‐adrenoceptor; test: ^3H‐cAMP accumulation in the presence of 10 μM forskolin, CHO‐α1A cells; format: cell-based; settings: CHO‐α1A cells; for EC50: 10 μM forskolin, read-out: cAMP accumulation (in presence of forskolin) Log EC50 (converted); for cAMP accumulation (in presence of forskolin) Fold increase: fold increase of the forskolin response
human α1A‐adrenoceptor [7] = target: T1, human α1A‐adrenoceptor; test: ERK1/2‐phosphorylation (Surefire Alphascreen), CHO‐α1A cells; format: cell-based; settings: CHO‐α1A cells, ^a bi‐phasic: initial stimulatory part; for EC50: 2–4 min, ^b also active in parent CHO cells, read-out: ERK1/2‐phosphorylation Log EC50 (converted); for ERK1/2‐phosphorylation % PDBu: % of 10 µM PDBu
human α1B‐adrenoceptor [8] = target: T2, human α1B‐adrenoceptor; test: Intracellular free calcium mobilization, CHO‐α1B cells; format: cell-based; settings: CHO‐α1B cells; for EC50: given as log EC50 (negative numbers), read-out: Intracellular calcium release Log EC50 (converted); for Log efficacy ratio KD /EC50: intrinsic efficacy ratio, KD from binding / EC50 calcium; for Intracellular calcium release % ionomycin: maximal response as % of 10 µM ionomycin response
[9] = tested on: parental CHO cell line without any transfected receptors; test: ERK1/2‐phosphorylation, parent CHO cells without transfected receptors; format: cell-based, Chinese hamster; settings: for Emax at 100 µM: Cricetulus griseus, CHO, read-out: ERK1/2-phosphorylation % PDBu at 100μM
[10] = target: T3, human α1D‐adrenoceptor (full length) (Homo sapiens, UniProt P25100); test: ^3H‐prazosin whole‐cell radioligand binding, CHO‐α1D cells; settings: for Kd: CHO‐α1D cells; for Affinity selectivity ratio α1B vs α1D: higher affinity for α1D than α1B
T3 construct: human α1D‐adrenoceptor (full length) were used; expressed in transfected cells; host or cells: CHO-K1
T3 sequence (P25100 1-572): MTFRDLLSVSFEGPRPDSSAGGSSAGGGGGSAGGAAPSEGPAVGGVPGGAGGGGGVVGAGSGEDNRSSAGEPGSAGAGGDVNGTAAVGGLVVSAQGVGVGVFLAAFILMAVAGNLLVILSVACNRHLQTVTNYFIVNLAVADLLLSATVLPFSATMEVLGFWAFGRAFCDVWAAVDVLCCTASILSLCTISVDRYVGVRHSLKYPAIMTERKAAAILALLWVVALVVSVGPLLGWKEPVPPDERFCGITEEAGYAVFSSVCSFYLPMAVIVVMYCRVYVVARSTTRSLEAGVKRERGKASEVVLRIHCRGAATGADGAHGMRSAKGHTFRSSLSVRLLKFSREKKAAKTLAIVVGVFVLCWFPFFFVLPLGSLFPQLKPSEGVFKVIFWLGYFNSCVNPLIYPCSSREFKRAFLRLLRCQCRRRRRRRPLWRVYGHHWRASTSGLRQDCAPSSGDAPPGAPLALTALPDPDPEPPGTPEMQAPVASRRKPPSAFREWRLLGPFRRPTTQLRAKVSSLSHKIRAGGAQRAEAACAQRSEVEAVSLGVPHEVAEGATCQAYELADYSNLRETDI

human α1B‐adrenoceptor [11] = target: T2, human α1B‐adrenoceptor; test: ^3H‐cAMP accumulation in the presence of 10 μM forskolin, CHO‐α1B cells; format: cell-based; settings: CHO‐α1B cells; for cAMP accumulation (in presence of forskolin) Fold increase: fold increase of the forskolin response; for EC50: in presence of forskolin, read-out: cAMP accumulation (in presence of forskolin) Log EC50 (converted)
[12] = target: T3, human α1D‐adrenoceptor (full length); test: ^3H‐cAMP accumulation, CHO‐α1D cells; format: cell-based; settings: cAMP accumulation without forskolin
[13] = target: T3, human α1D‐adrenoceptor (full length); test: ERK1/2‐phosphorylation (Surefire Alphascreen), CHO‐α1D cells; format: cell-based; settings: CHO‐α1D cells; for EC50: read-out: ERK1/2‐phosphorylation Log EC50 (converted); for ERK1/2‐phosphorylation % PDBu: maximal response as % of PDBu
[14] = Log KD α1B, ^3H‐prazosin whole cell binding, CHO‐α1B cells, given as log KD (negative), mean ± SEM
[15] = Log KD, ^3H‐prazosin binding, CHO‐α1B cells, whole‐cell binding (from Table 1), given as log KD (negative numbers)
[16] = 3H‐prazosin binding Log KD, whole‐cell binding (from Table 1), log values given negative
[17] = Log KD α1D, ^3H‐prazosin whole cell binding, given as log KD (negative), mean ± SEM, 'early plateau' = specific binding not fully inhibited

EC50 (human α1A‐adrenoceptor [2]) [µM] | cAMP accumulation % forskolin (human α1A‐adrenoceptor [2]) [%] | Kd (human α1B‐adrenoceptor [3]; [14]) [µM] | Kd (human α1B‐adrenoceptor [3]; [15]) [µM] | Kd (human α1A‐adrenoceptor [4]) [µM] | Affinity selectivity ratio α1A vs α1B (human α1A‐adrenoceptor [4]) [fold] | Affinity selectivity ratio α1A vs α1D (human α1A‐adrenoceptor [4]) [fold] | EC50 (human α1A‐adrenoceptor [6]) [µM] | cAMP accumulation (in presence of forskolin) Fold increase (human α1A‐adrenoceptor [6]) [fold] | EC50 (human α1A‐adrenoceptor [7]) [µM] | ERK1/2‐phosphorylation % PDBu (human α1A‐adrenoceptor [7]) [%] | EC50 (human α1B‐adrenoceptor [8]) [µM] | Log efficacy ratio KD /EC50 (human α1B‐adrenoceptor [8]) | Intracellular calcium release % ionomycin (human α1B‐adrenoceptor [8]) [%] | Kd [10, 16] [µM] | Kd [10, 17] [µM] | cAMP accumulation (in presence of forskolin) Fold increase (human α1B‐adrenoceptor [11]) [fold] | EC50 (human α1B‐adrenoceptor [11]) [µM] | ERK1/2‐phosphorylation % PDBu [13] | Compound | cAMP accumulation (in presence of forskolin) Log EC50 [1] | also measured
0.269 | 57.9 ± 5.7 | 1.82 | 1.82 | 0.288 | 6.3 | 7.1 | 0.0417 | 2.18 ± 0.05 | 0.00407 | 90.9 ± 4.4 | 0.00933 | 2.29 | 38.9 ± 2.9 | 2.04 | 2.04 | 1.65 ± 0.07 | 0.0055 | 33.0 ± 4.7% | c1ccc2c(CC3=NCCN3)cccc2c1 [Naphazoline] | No response | Affinity selectivity ratio α1B vs α1D (human α1B‐adrenoceptor [3]; left sub‐column: higher affinity for α1B than α1D): 1.1 fold; cAMP accumulation % forskolin (human α1B‐adrenoceptor [5]): 3.9 ± 0.7%; EC50 (human α1B‐adrenoceptor [5]): 0.0129 µM; Emax at 100 µM [9]: 9.2 ± 3.3%; cAMP Log EC50 [12]: No response; EC50 ([13]; log values given negative): 13.8 µM
4.9 | 120.0 ± 3.7 |  |  | 23.4 | >42.7 | 6.5 | 0.398 | 2.19 ± 0.09 | 0.0275 | 81.4 ± 4.5 | 0.229 | >3.64 | 59.1 ± 3.2 | 151 | 151 | 2.42 ± 0.05 | 6.92 | 14.2 ± 3.9% | COc1ccc(OC)c(C(O)C(C)N)c1 (stereo not shown) [Methoxamine] | No response | IC50 (human α1B‐adrenoceptor [3]; CHO‐α1B cells, printed as IC50> log value): > 1000 µM; cAMP accumulation % forskolin at 100 µM (human α1B‐adrenoceptor [5]; response at 100 µM ligand (no EC50 given)): 24.2 ± 4.6%; ERK1/2-phosphorylation % PDBu ([9]; CHO cells without transfected receptors, maximal response as % of PDBu (10μM) response, mean ± s.e.m.): No response; ERK1/2-phosphorylation Log EC50 ([9]; CHO cells without transfected receptors, mean ± s.e.m.): No response; Affinity selectivity ratio α1B vs α1D [10]: >6.6 fold; cAMP Log EC50 [12]: No response; EC50 ([13]; log values given negative): 8.32 µM
1.66 | 65.6 ± 6.5 | 44.7 | 44.7 | 3.47 | 12.9 | 1.1 | 0.123 | 2.36 ± 0.10 | 0.0372 | 82.1 ± 3.9 | 0.0891 | 2.70 | 48.8 ± 1.8 | 3.89 | 3.89 | 2.01 ± 0.11 | 0.182 | No response | Clc1ccc2nsnc2c1NC1=NCCN1 [Tizanidine] | No response | cAMP accumulation % forskolin (human α1B‐adrenoceptor [5]): 10.7 ± 1.5%; EC50 (human α1B‐adrenoceptor [5]): 0.708 µM; Emax at 100 µM [9]: 6.7 ± 3.3%; Affinity selectivity ratio α1B vs α1D [10]: 11.5 fold; ERK1/2‐phosphorylation Log EC50 ([13]; log values given negative): No response

Source: publication PMC8343220, “The selectivity of α‐adrenoceptor agonists for the human α1A, α1B, and α1D‐adrenoceptors” (Pharmacology Research & Perspectives, 2021)
